Results as given in paper PMC4632759, “Studies on [5,6]-Fused Bicyclic Scaffolds Derivatives as Potent Dual B-Raf^V600E/KDR Inhibitors Using Docking and 3D-QSAR Approaches” (International Journal of Molecular Sciences, 2015).
Like-named read-outs stand apart in the source and are kept apart here.

Key:
VEGFR2 [1] = biological target: T1, VEGFR2 (Homo sapiens, UniProt P35968); assay: VEGFR2 (KDR) kinase inhibition (literature data set); assay type: biochemical
Description: (§1) The IC50 values of all compounds for B-Raf and KDR inhibition were converted to the −log IC50 (pIC50) as dependent variables in the 3D-QSAR analysis. The 3D structures for all 40 compounds were built and minimized, and then Gasteiger-Hückel charge was calculated.

VEGFR2 [2] = biological target: T1, VEGFR2; design: method as in PMID 22376051, PMID 22763369, PMID 22883026, PMID 23906342; conditions: literature values used as 3D-QSAR data set; read-out: Kinase IC50 VEGFR2; cited from earlier work
B-Raf^V600E [3] = biological target: T2, B-Raf^V600E (Homo sapiens, UniProt P15056, V600E); design: method as in PMID 22376051, PMID 22763369, PMID 22883026, PMID 23906342; conditions: literature values used as 3D-QSAR data set; read-out: Kinase IC50 B-Raf^V600E; cited from earlier work
B-Raf^V600E [4] = biological target: T2, B-Raf^V600E; assay: B-Raf^V600E kinase inhibition (literature data set); assay type: biochemical; conditions: −log IC50 of literature IC50; for IC50: read-out: B-Raf Actual pIC50 (converted)
Description: as §1, with “calculated. All works were all done in SYBYL 6.9 (Tripos, Inc.: St. Louis, MO, USA, 2002).” for “calculated.”

T1 sequence (P35968 806-1171): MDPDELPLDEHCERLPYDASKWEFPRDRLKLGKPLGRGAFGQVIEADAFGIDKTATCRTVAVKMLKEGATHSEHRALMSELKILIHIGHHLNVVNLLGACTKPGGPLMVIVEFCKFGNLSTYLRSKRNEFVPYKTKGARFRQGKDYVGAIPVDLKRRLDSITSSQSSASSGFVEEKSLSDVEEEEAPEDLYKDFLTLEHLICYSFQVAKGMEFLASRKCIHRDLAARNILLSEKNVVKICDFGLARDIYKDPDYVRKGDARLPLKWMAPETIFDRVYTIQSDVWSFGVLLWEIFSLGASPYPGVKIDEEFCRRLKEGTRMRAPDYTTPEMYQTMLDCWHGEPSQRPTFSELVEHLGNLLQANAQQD
T2 sequence (P15056 whole entry V600E): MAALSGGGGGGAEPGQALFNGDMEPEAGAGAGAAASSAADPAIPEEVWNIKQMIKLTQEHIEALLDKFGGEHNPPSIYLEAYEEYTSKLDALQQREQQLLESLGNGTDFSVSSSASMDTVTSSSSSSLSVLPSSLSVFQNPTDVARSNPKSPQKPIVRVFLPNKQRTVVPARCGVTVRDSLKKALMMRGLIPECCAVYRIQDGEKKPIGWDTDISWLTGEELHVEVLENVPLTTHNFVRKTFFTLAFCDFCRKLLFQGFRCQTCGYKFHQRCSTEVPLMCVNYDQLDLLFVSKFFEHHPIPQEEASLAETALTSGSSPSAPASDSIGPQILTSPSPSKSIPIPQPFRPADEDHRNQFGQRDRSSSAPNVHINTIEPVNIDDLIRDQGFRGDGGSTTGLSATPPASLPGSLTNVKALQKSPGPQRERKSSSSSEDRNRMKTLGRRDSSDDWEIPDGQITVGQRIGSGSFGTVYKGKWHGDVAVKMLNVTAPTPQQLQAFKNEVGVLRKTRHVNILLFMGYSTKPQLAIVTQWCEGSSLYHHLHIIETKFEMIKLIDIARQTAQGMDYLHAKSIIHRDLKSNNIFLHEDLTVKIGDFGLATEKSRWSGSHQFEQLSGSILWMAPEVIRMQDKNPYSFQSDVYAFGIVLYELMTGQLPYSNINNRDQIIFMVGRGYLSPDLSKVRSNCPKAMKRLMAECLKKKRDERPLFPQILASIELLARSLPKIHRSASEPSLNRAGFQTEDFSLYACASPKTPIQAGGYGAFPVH

Row | IC50 (VEGFR2 [1]; −log IC50 of literature IC50, read-out: KDR Actual pIC50 (converted)) [nM] | SMILES | IC50 (VEGFR2 [1]) [nM] | IC50 (VEGFR2 [2]) [nM] | IC50 (B-Raf^V600E [3]) [nM] | IC50 (B-Raf^V600E [4]) [nM] | KDR Actual pIC50 (VEGFR2 [1]; −log IC50 of literature IC50) | B-Raf Actual pIC50 (B-Raf^V600E [4])
1 | – | CC(C)(C)Oc1cccc(C(=O)Nc2cccc(Oc3ccc4nc(NC(=O)C5CC5)cn4n3)c2)c1 [Compound 1-10] | 1.82 | 1.8 | 15 | 15.1 | – | –
2 | – | CC(C)(C#N)c1cccc(C(=O)Nc2cccc(Oc3ccc4nc(NC(=O)C5CC5)sc4c3[N+](=O)[O-])c2)c1 [Compound 5-1] | – | – | – | – | 7.15 | 7.60
3 | – | CC(=O)Nc1cn2nc(Oc3cccc(NC(=O)c4cccc(C(F)(F)F)c4)c3)ccc2n1 [Compound 1-2] | 1.1 | 1.1 | 4.1 | 4.07 | – | –
4 | – | COC(=O)c1c(Oc2cccc(NC(=O)c3cccc(C(C)(C)C#N)c3)c2)ccc2nc(NC(=O)C3CC3)sc12 [Compound 5-3] | – | – | – | – | 7.48 | 7.92
5 | – | CC(=O)Nc1nc2ccc(Oc3ccc(F)c(NC(=O)c4cccc(C5(C#N)CC5)c4Cl)c3)nc2s1 [Compound 3-5] | 3.39 | 3.4 | 6.3 | 6.31 | – | –
6 | – | CC(=O)Nc1nc2cnc(Oc3cc(NC(=O)c4cccc(CC(C)(C)C#N)c4)ccc3C)nc2s1 [Compound 4-2] | 302 | 300 | – | 100 | – | –
7 | – | O=C(Nc1cccc(Oc2ccc3nc(NC(=O)C4CC4)cn3n2)c1)c1ccc(C(F)(F)F)cc1 [Compound 1-7] | 1.91 | 1.9 | 81 | 81.3 | – | –
8 | – | N#Cc1c(Oc2ccc(F)c(NC(=O)Nc3cccc(C(F)(F)F)c3)c2)ccc2nc(NC(=O)C3CC3)sc12 [Compound 6-3] | – | – | – | – | 6.14 | 7.31
9 | 2.19 | N#CC1(c2cccc(C(=O)Nc3cc(Oc4ccc5nc(NC(=O)C6CC6)sc5n4)ccc3F)c2Cl)CC1 [Compound 3-3] | – | – | – | 7.08 | – | –
10 | – | N#CC1(c2cccc(C(=O)Nc3cccc(Oc4ccc5nc(NC(=O)C6CC6)sc5n4)c3)c2)CC1 [Compound 3-1] | 2.19 | 2.2 | 3 | 3.02 | – | –
11 | – | N#Cc1c(Oc2cccc(NC(=O)Cc3ccccc3C(F)(F)F)c2)ccc2nc(NC(=O)C3CC3)sc12 [Compound 6-5] | – | – | – | – | 7.00 | 7.85
12 | – | CC(C)(C#N)c1cccc(C(=O)Nc2cccc(Oc3ccc4nc(NC(=O)C5CC5)cn4n3)c2)c1 [Compound 1-12] | 1.51 | 1.5 | 14 | 14.1 | – | –
13 | – | O=C(Nc1cccc(Oc2ccc3nc(NC(=O)C4CC4)cn3n2)c1)c1ccccc1C(F)(F)F [Compound 1-8] | 1.41 | 1.4 | 3700 | 3720 | – | –
14 | – | COc1cccc(C(=O)Nc2cccc(Oc3ccc4nc(NC(=O)C5CC5)cn4n3)c2)c1 [Compound 1-9] | 0.309 | 0.31 | 18 | 18.2 | – | –
15 | – | CC(C)(C#N)c1cccc(C(=O)Nc2cccc(Oc3ccc4nc(NC(=O)C5CC5)[nH]c4c3)c2)c1 [Compound 2-2] | 8.13 | 8.1 | 41 | 40.7 | – | –
16 | – | CC(=O)Nc1nc2cnc(Oc3cc(NC(=O)c4cccc(OC(C)(C)C#N)c4)ccc3C)nc2s1 [Compound 4-3] | 513 | 510 | 73 | 72.4 | – | –
17 | – | N#CC1(c2cccc(C(=O)Nc3cccc(Oc4ccc5nc(NC(=O)C6CC6)sc5n4)c3)c2Cl)CC1 [Compound 3-2] | 3.98 | 4 | 9 | 8.91 | – | –
18 | – | CC(C)(C#N)c1cccc(C(=O)Nc2cccc(Oc3ccc4nc(NC(=O)C5CC5)sc4c3C#N)c2)c1 [Compound 5-2] | – | – | – | – | 7.12 | 7.89

Row | IC50 (VEGFR2 [1]; −log IC50 of literature IC50, read-out: KDR Actual pIC50 (converted)) [nM] | SMILES | IC50 (VEGFR2 [1]) [nM] | IC50 (VEGFR2 [2]) [nM] | IC50 (B-Raf^V600E [3]) [nM] | IC50 (B-Raf^V600E [4]) [nM] | KDR Actual pIC50 (VEGFR2 [1]; −log IC50 of literature IC50) | B-Raf Actual pIC50 (B-Raf^V600E [4])
19 | – | CC(C)(C#N)c1cccc(C(=O)Nc2cccc(Oc3ccc4nc(NC(=O)C5CC5)sc4c3CO)c2)c1 [Compound 5-4] | – | – | – | – | 8.13 | 7.62
20 | – | CC(C)(C#N)c1cccc(C(=O)Nc2cccc(Oc3ccc4nc(NC(=O)C5CC5)cn4c3)c2)c1 [Compound 2-1] | 1.82 | 1.8 | 49 | 49 | – | –
21 | – | N#Cc1c(Oc2cccc(NC(=O)Cc3ccc(C(F)(F)F)cc3)c2)ccc2nc(NC(=O)C3CC3)sc12 [Compound 6-7] | – | – | – | – | 6.72 | 8.02
22 | – | CC(=O)Nc1nc2ccc(N(C)c3ccc(F)c(NC(=O)c4cccc(OC(C)(C)C#N)c4)c3)nc2s1 [Compound 3-6] | – | – | – | – | 8.00 | 7.64
23 | – | CC(C)(C#N)c1cccc(C(=O)Nc2cccc(Oc3ccc4nc(NC(=O)C5CC5)[nH]c4n3)c2)c1 [Compound 2-3] | 3.09 | 3.1 | 17 | 17 | – | –
24 | – | N#Cc1c(Oc2cccc(NC(=O)Nc3ccccc3C(F)(F)F)c2)ccc2nc(NC(=O)C3CC3)sc12 [Compound 6-1] | – | – | – | – | 6.92 | 7.72
25 | – | CC(C)(O)c1cccc(C(=O)Nc2cccc(Oc3ccc4nc(NC(=O)C5CC5)cn4n3)c2)c1 [Compound 1-11] | 0.813 | 0.82 | – | 10 | – | –
26 | – | N#CC1(c2cccc(C(=O)Nc3cc(Oc4ccc5nc(NC(=O)C6CC6)sc5n4)ccc3Cl)c2Cl)CC1 [Compound 3-4] | 7.59 | 7.5 | 43 | 42.7 | – | –
27 | – | O=C(Nc1cccc(Oc2ccc3nc(NC(=O)C4CCCC4)cn3n2)c1)c1cccc(C(F)(F)F)c1 [Compound 1-6] | 9.33 | 9.3 | 44 | 43.7 | – | –
28 | – | CC(=O)Nc1nc2ccc(N(C)c3ccc(F)c(NC(=O)c4cccc(OC(C)(C)C#N)c4Cl)c3)nc2s1 [Compound 3-7] | – | – | – | – | 7.85 | 7.35
29 | – | CN(c1ccc(F)c(NC(=O)c2cccc(OC(C)(C)C#N)c2Cl)c1)c1ccc2nc(NC(=O)C3CC3)sc2n1 [Compound 3-8] | – | – | – | – | 8.12 | –
30 | – | N#Cc1c(Oc2cccc(NC(=O)Cc3cccc(C(F)(F)F)c3)c2)ccc2nc(NC(=O)C3CC3)sc12 [Compound 6-6] | – | – | – | – | 6.82 | 8.89
31 | – | O=C(Nc1cccc(Oc2ccc3nc(NC(=O)C4CC4)cn3n2)c1)c1cccc(C(F)(F)F)c1 [Compound 1-4] | 1.91 | 1.9 | 7.6 | 7.59 | – | –
32 | – | Cn1c(NC(=O)C2CC2)nc2ccc(Oc3cccc(NC(=O)c4cccc(C(C)(C)C#N)c4)c3)nc21 [Compound 2-4] | 2.4 | 2.4 | 200 | 200 | – | –
33 | – | N#Cc1c(Oc2ccc(F)c(NC(=O)Nc3ccc(C(F)(F)F)cc3)c2)ccc2nc(NC(=O)C3CC3)sc12 [Compound 6-4] | – | – | > 26 | – | 6.18 | 7.59
34 | – | O=C(Nc1cccc(Oc2ccc3nc(NC(=O)C4CCOCC4)cn3n2)c1)c1cccc(C(F)(F)F)c1 [Compound 1-1] | – | – | 43 | 42.7 | – | –
35 | – | N#Cc1c(Oc2ccc(F)c(NC(=O)Cc3cccc(C(F)(F)F)c3)c2)ccc2nc(NC(=O)C3CC3)sc12 [Compound 6-8] | – | – | – | – | 6.80 | 8.62
36 | – | N#Cc1c(Oc2cccc(NC(=O)Nc3ccc(C(F)(F)F)cc3)c2)ccc2nc(NC(=O)C3CC3)sc12 [Compound 6-2] | – | – | – | – | 6.48 | 7.74
